Assay results taken from patent publication US20090123940A1, “MOLECULES INVOLVED IN SYNAPTOGENESIS AND USES THEREFOR” (THE JOHNS HOPKINS UNIVERSITY, priority 2007, published 2009).

Assays:
[1] = system: Purkinje cells cultured from embryonic mouse cerebellum; test: LTD of glutamate-evoked inward current in cultured Purkinje cells (glutamate test pulses paired with depolarizing steps); type: cell-based; details: t=40 min; TAPI-2 10 μM, GM6001 1 μM, GM6001 control compound 1 μM; n=7
Experimental: (§1) Recording and Ca^2+ imaging in cerebellar cultures. Cultures of embryonic mouse cerebellum were prepared as previously described and recordings were performed according to our previously published method (Leitges et al., Neuron 44:585-94, 2004). […]. Test pulses were delivered using negative current pulses (300-700 nA, 30-80 msec duration). LTD-inducing pairing stimuli consisted of six, 3-s-long depolarizations to 0 mV, each delivered together with a test pulse of glutamate.
(§2) Membrane currents were recorded with an Axopatch 200A amplifier, and digitized at 10 kHz for exogenous glutamate responses and 20 kHz for mEPSCs. Signals were lowpass filtered at 5 kHz (1 kHz for mEPSCs) and acquired using Axograph X software (Axograph Scientific, Sydney, Australia). Recordings in which Rinput or Rseries varied by more than 10% were excluded from the analysis. For analysis of mEPSCs, Axograph X mini analysis software was used. This detected events based on closeness of fit of the mEPSC to a sliding template. Events smaller than − ? 4 pA were discarded. A separate template was created for each recording by averaging 30 of its most unambiguous mEPSCs as selected by eye.
Other studies have shown that LTD in Purkinje cells cultured from embryonic mouse cerebellum requires activation of mGluR1, and is expressed postsynaptically as a reduction in surface AMPA receptors (Chung et al., Science 300:1751-5, 2003; Leitges et al., Neuron 44:585-94, 2004; Linden, PNAS 98:14066-71, 2001; Matsuda et al., EMBO J. 19:2765-74, 2000; Steinberg et al., Neuron 49:845-60, 2006; Wang and Linden, Neuron 25:635-47, 2000). Here, LTD was examined using a purely postsynaptic model in which iontophoretic test pulses of glutamate are applied to voltage-clamped Purkinje cells in culture. Following a baseline recording period, LTD was induced by pairing six 3 sec long depolarizing steps to 0 mV with six glutamate test pulses. When test pulses were resumed after pairing, LTD of the glutamate-evoked inward current was evident (52±9.0% of baseline at t=40 min, n=7 cells, FIG. 6A). […]

[2] = system: cultured cerebellar Purkinje cells; test: Basal electrophysiological properties and Ca2+ imaging in cultured cerebellar Purkinje cells; type: cell-based, mouse; details: TAPI-2 10 μM; GM6001 1 μM; GM6001 control 1 μM; mean ± SEM
Experimental: as §1, §2
Bis-Fura-2 ratio imaging of intracellular free Ca^2+ in the dendritic shafts of cultured Purkinje cells was accomplished by measuring the background corrected fluorescence ratio at 340 and 380 nm excitation using a cooled CCD camera system. In these experiments, EGTA was removed from the internal saline and replaced with 100 μM bis-Fura-2.

[3] = system: LFC-NPR (TACE cleavage of NPR); test: Western blot of LFC-NPR in lysates of cultured cortical neurons after DHPG; type: cell-based
Experimental: Cell Culture, Transfection, Western Blot Analysis, and Co-immunoprecipitation analysis. HEK293T and […] (ATCC, Manassas, Va.) cell maintenance and transfection methods have been described previously (Xu et al., supra). Preparation and transfection of cultured hippocampal neurons were described previously (Rumbaugh et al., J Neurosci 23:4567-76, 2003). Western blot analysis of homogenates of HEK293T cells, cultured neurons, and brain extracts was performed as described previously (Xu et al., supra). Co-IP analysis to measure interaction between NPR and AMPAR was performed as described (Xu et al., supra).
Ab LFC-NPR was used to examine the possibility that mGluR1/5 might regulate cleavage of NPR. mGluR1/5 activates PKC via phospholipase C and the production of diacylglycerol (DAG) and inositol triphosphate (IP3) that releases intracellular Ca^2+. […] Ab LFC-NPR detected a ˜60 kDa band from lysates that increased in intensity (expressed as a percent control) over time after stimulation with DHPG. No specific band was detected in the medium by Ab LFC-NPR or other NPR Abs. Absence of LFC-NPR in the medium of neurons was consistent with the observation that both Narp and NP1 were absent from medium even though they are secreted proteins detected on the cell surface using live labeling methods. […]

[4] = system: NPR cleavage at Site A (TACE); test: NPR cleavage assay in transfected HEK293T cells; type: cell-based, rat; details: TAPI-2 50 μM; GM6001 25 μM
Experimental: Cleavage Assay HEK293T cells were plated in OptiMEM (Invitrogen, Carlsbad, Calif.) containing 5% FBS onto 6-well dishes at a density of 4×10^5 cells/mL (2 mL/well) 1 day before transfection. Cells were transfected with NPR in pRK5 using LipofectAMINE 2000 (Invitrogen, Carlsbad Calif.). After 24 hr the medium was replaced with serum-free OptiMEM. […] Samples from each well were obtained at specific time points, immediately placed on ice, centrifuged at 15,000 g to remove cell debris, and then treated with 2% β-mercaptoethanol containing loading buffer. At the end of the time course, the cells were lysed with RIPA buffer, centrifuged to remove cell debris, and treated with 2% β-mercaptoethanol in loading buffer. Samples (20 μL of medium or lysate diluted to 1/5) were run on SDS-PAGE gels and analyzed by Western blotting.

| Compound | glutamate-evoked inward current after LTD induction [1] | DHPG-evoked (dendritic Ca2+ transient) [2] | Depol-evoked (dendritic Ca2+ transient) [2] | Resting Ca2+ [2] | mEPSC 10-90% rise [2] | mEPSC 50% decay [2] | mEPSC amp [2] | DHPG-stimulated increase in LFC-NPR ([3]; pretreatment of cultured neurons with TAPI-2) | PMA-stimulated cleavage at Site A / secretion of LFC-NPR into the medium [4] | increase of LFC-NPR levels in lysates ([3]; 90 minutes after stimulation with 50 μM DHPG for 5 minutes, cultured cortical neurons ~DIV 14) |
| --- | --- | --- | --- | --- | --- | --- | --- | --- | --- | --- |
| CC(C)C[C@H](CC(=O)NO)C(=O)N[C@H](C(=O)N[C@@H](C)C(=O)NCCN)C(C)(C)C [TAPI-2] | 112±8.6 % of baseline | 231 ± 35 nM | 604 ± 89 nM | 109 ± 22 nM | 1.8 ± 0.4 msec | 7.7 ± 0.6 ms | 27 ± 7 pA | blocked | inhibited |  |
| N[C@H](C(=O)O)c1cc(O)cc(O)c1 [DHPG, (S)-3,5-dihydroxyphenylglycine] |  |  |  |  |  |  |  |  |  | 60.7%±2.5% |
